Data as given in US11998537B2, “Substituted indole dimer compounds” (BRISTOL-MYERS SQUIBB COMPANY, priority 2018, dated 2024).

Key:
Type in all cases: cell-based
[1] = molecular target: T1, human TLR7 (Homo sapiens, UniProt Q9NYK1); assay: TLR7 inhibition reporter assay (HEK-Blue SEAP); details: HEK-Blue cells overexpressing human TLR7, gardiquimod 7.5 μM, 22 hour incubation
T1 construct: host or cells: HEK-Blue cells (HEK293-derived reporter line)
T1 sequence (Q9NYK1 27-1049): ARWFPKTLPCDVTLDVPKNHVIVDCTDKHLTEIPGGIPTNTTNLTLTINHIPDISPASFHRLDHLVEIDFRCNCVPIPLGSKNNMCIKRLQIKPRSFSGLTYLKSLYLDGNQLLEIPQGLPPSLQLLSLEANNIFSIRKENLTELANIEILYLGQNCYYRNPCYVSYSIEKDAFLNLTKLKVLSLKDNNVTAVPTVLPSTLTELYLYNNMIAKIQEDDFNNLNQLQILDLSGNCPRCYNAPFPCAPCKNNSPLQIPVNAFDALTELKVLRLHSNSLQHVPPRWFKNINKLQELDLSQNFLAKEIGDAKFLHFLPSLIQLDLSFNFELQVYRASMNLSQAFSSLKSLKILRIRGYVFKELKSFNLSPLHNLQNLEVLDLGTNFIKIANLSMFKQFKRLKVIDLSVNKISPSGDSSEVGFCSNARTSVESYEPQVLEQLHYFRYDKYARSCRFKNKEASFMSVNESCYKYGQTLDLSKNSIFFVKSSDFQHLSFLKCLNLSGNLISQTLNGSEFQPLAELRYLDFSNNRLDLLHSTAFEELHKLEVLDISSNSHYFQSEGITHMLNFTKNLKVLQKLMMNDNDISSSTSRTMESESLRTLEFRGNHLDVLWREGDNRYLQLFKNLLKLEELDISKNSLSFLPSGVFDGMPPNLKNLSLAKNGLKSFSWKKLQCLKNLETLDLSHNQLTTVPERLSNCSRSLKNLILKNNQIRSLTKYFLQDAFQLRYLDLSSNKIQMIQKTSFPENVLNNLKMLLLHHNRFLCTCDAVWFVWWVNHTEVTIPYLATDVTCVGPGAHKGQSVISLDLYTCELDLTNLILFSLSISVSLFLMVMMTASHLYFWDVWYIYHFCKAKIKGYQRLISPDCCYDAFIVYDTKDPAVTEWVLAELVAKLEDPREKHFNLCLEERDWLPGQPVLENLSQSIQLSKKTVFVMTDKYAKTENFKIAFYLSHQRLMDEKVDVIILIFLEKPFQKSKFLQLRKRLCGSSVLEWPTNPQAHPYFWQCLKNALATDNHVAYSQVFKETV
Protocol: (§1) TLR7/8/9 Inhibition Reporter Assays
(§2) HEK-Blue™-cells (Invivogen) overexpressing human TLR7, TLR8 or TLR9 receptors were used for screening inhibitors of these receptors using an inducible SEAP (secreted embryonic alkaline phosphatase) reporter gene under the control of the IFN-β minimal promoter fused to five NF-κB and AP-1-binding sites. Briefly, cells are seeded into Greiner 384 well plates (15000 cells per well for TLR7, 20,000 for TLR8 and 25,000 for TLR9) and then treated with test compounds in DMSO to yield a final dose response concentration range of 0.05 nM-50 μM. After a 30 minute compound pre-treatment at room temperature, the cells are then stimulated with a TLR7 ligand (gardiquimod at a final concentration of 7.5 μM), TLR8 ligand (R848 at a final concentration of 15.9 μM) or TLR9 ligand (ODN2006 at a final concentration of 5 nM) to activate NF-κB and AP-1 which induce the production of SEAP. After a 22 hour incubation at 37° C., 5% CO2, SEAP levels are determined with the addition of HEK-Blue™ Detection reagent (Invivogen), a cell culture medium that allows for detection of SEAP, according to manufacturer's specifications. The percent inhibition is determined as the % reduction in the HEK-Blue signal present in wells treated with agonist plus DMSO alone compared to wells treated with a known inhibitor.

[2] = molecular target: T2, human TLR8 (Homo sapiens, UniProt Q9NR97); assay: TLR8 inhibition reporter assay (HEK-Blue SEAP); details: HEK-Blue cells overexpressing human TLR8, R848 15.9 μM, 22 hour incubation
T2 construct: host or cells: HEK-Blue cells (HEK293-derived reporter line)
T2 sequence (Q9NR97 27-1041): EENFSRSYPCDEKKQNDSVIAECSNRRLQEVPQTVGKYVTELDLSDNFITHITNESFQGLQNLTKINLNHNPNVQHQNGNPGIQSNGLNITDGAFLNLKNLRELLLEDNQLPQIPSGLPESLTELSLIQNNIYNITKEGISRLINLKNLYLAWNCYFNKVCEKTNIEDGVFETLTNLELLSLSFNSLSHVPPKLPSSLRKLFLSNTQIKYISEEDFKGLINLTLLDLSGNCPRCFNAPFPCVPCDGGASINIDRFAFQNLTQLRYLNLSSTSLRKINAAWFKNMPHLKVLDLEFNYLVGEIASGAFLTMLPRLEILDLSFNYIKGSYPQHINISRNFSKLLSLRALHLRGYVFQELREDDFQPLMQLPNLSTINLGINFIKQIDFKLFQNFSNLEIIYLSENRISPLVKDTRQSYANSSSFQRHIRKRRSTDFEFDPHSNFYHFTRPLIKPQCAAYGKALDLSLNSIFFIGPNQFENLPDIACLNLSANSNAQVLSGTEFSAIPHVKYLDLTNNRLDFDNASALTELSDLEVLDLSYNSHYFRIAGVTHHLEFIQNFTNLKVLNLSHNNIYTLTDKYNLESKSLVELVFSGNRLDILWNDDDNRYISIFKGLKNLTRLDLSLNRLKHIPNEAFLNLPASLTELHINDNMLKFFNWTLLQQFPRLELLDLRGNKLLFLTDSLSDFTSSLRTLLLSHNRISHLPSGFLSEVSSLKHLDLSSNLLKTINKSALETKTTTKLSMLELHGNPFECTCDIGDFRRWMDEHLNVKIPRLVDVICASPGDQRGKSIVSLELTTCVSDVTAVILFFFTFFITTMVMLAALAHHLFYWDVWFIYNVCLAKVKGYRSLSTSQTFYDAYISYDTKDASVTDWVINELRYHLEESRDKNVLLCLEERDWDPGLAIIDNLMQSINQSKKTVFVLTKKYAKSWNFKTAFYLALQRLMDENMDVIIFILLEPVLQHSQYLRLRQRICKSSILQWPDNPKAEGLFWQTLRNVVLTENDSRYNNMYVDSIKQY
Protocol: as §1, §2

[3] = molecular target: T3, human TLR9 (Homo sapiens, UniProt Q9NR96); assay: TLR9 inhibition reporter assay (HEK-Blue SEAP); details: HEK-Blue cells overexpressing human TLR9, ODN2006 5 nM, 22 hour incubation
T3 construct: host or cells: HEK-Blue cells (HEK293-derived reporter line)
T3 sequence (Q9NR96 26-1032): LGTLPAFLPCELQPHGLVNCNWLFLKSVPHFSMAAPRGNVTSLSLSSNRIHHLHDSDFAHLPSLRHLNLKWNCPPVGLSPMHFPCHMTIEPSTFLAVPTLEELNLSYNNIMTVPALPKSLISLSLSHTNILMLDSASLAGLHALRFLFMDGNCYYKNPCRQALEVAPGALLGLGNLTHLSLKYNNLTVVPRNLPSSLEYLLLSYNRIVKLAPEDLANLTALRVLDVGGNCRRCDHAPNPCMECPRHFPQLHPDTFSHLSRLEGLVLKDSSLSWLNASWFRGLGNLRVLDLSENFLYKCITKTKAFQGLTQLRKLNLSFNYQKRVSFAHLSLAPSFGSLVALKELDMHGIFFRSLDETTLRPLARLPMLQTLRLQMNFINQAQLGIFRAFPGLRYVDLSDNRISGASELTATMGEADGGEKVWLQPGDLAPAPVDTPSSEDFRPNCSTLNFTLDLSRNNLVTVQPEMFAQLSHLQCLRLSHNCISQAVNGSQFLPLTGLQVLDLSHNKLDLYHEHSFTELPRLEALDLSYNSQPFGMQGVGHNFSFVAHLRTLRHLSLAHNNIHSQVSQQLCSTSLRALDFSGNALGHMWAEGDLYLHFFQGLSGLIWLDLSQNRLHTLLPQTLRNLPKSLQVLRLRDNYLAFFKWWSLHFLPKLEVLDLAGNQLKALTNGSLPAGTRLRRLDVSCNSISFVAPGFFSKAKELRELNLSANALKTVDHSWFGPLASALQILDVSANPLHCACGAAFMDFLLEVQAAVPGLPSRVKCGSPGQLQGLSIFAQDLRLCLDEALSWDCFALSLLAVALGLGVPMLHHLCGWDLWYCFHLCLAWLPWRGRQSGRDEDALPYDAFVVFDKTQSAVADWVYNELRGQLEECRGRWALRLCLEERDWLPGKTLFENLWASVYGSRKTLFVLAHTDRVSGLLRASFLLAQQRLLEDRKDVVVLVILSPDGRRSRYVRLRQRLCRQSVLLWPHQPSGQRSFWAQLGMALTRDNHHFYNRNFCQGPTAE
Protocol: as §1, §2

Row | IC50 [1] [nM] | IC50 [2] [nM] | IC50 [3] [nM] | Molecule
1 | 0.17 | 0.2 | 148 | COc1cc(-c2[nH]c3ccc(C4CCN(CCNC(=O)CCCCCCC(=O)NCCN5CCC(c6ccc7[nH]c(-c8cc(OC)c9ncnn9c8)c(C(C)C)c7c6)CC5)CC4)cc3c2C(C)C)cn2ncnc12 [Example 6, N1,N8-bis(2-(4-(3-isopropyl-2-(8-methoxy-[1,2,4]triazolo[1,5-a]pyridin-6-yl)-1H-indol-5-yl)piperidin-1-yl)ethyl)octanediamide]
2 | 0.14 | 0.24 | 98 | COc1cc(-c2[nH]c3ccc(C4CCN(CCNC(=O)CCCCCCCCC(=O)NCCN5CCC(c6ccc7[nH]c(-c8cc(OC)c9ncnn9c8)c(C(C)C)c7c6)CC5)CC4)cc3c2C(C)C)cn2ncnc12 [Example 7, N1,N10-bis(2-(4-(3-isopropyl-2-(8-methoxy-[1,2,4]triazolo[1,5-a]pyridin-6-yl)-1H-indol-5-yl)piperidin-1-yl)ethyl)decanediamide]
3 | 0.19 | 0.28 | 175 | COc1cc(-c2[nH]c3ccc(C4CCN(CCNC(=O)CCCCCC(=O)NCCN5CCC(c6ccc7[nH]c(-c8cc(OC)c9ncnn9c8)c(C(C)C)c7c6)CC5)CC4)cc3c2C(C)C)cn2ncnc12 [Example 8, N1,N7-bis(2-(4-(3-isopropyl-2-(8-methoxy-[1,2,4]triazolo[1,5-a]pyridin-6-yl)-1H-indol-5-yl)piperidin-1-yl)ethyl)heptanediamide]
4 | 0.19 | 0.59 | 348 | COc1cc(-c2[nH]c3ccc(C4CCN(CCNC(=O)CCCCC(=O)NCCN5CCC(c6ccc7[nH]c(-c8cc(OC)c9ncnn9c8)c(C(C)C)c7c6)CC5)CC4)cc3c2C(C)C)cn2ncnc12 [Example 9, N1,N6-bis(2-(4-(3-isopropyl-2-(8-methoxy-[1,2,4]triazolo[1,5-a]pyridin-6-yl)-1H-indol-5-yl)piperidin-1-yl)ethyl)adipamide]
5 | 17 | 143 | 4600 | COc1cc(-c2[nH]c3ccc(C4CCN(CCNC(=O)CCC(=O)NCCN5CCC(c6ccc7[nH]c(-c8cc(OC)c9ncnn9c8)c(C(C)C)c7c6)CC5)CC4)cc3c2C(C)C)cn2ncnc12 [Example 11, N1,N4-bis(2-(4-(3-isopropyl-2-(8-methoxy-[1,2,4]triazolo[1,5-a]pyridin-6-yl)-1H-indol-5-yl)piperidin-1-yl)ethyl)succinamide]
6 | 191 | 509 | 13400 | COc1cc(-c2[nH]c3ccc(C4CCN(CCCCCCCCCCCCCCCCCCN5CCC(c6ccc7[nH]c(-c8cc(OC)c9ncnn9c8)c(C(C)C)c7c6)CC5)CC4)cc3c2C(C)C)cn2ncnc12 [Example 12, 1,18-bis(4-(3-isopropyl-2-(8-methoxy-[1,2,4]triazolo[1,5-a]pyridin-6-yl)-1H-indol-5-yl)piperidin-1-yl)octadecane]
7 | 1.3 | 1.1 | 44 | N1,N12-bis(2-(4-(3-isopropyl-2-(8-methoxy-[1,2,4]triazolo[1,5-a]pyridin-6-yl)-1H-indol-5-yl)piperidin-1-yl)ethyl)dodecanediamide [Example 10]
